Laboratory results reported in ChEMBL document CHEMBL5291721, “A preclinical secondary pharmacology resource illuminates target-adverse drug reaction associations of marketed drugs” (Nat Commun, 2023).

Experiments:
[1] = molecular target: T1, Type-1 angiotensin II receptor (Homo sapiens, UniProt P30556)
T1 sequence (P30556 whole entry): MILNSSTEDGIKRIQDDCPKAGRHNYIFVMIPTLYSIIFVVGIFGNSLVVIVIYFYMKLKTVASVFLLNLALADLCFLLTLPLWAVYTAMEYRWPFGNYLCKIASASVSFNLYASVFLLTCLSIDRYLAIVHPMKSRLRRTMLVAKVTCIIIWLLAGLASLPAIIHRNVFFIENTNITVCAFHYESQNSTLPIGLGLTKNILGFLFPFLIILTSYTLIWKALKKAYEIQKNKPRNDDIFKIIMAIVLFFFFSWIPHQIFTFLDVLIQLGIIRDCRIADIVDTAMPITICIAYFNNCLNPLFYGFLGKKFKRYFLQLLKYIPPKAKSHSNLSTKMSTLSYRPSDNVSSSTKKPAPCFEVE

Vasopressin V2 receptor = Vasopressin V2 receptor (Homo sapiens, UniProt P30518)
Vasopressin V2 receptor, sequence (P30518 whole entry): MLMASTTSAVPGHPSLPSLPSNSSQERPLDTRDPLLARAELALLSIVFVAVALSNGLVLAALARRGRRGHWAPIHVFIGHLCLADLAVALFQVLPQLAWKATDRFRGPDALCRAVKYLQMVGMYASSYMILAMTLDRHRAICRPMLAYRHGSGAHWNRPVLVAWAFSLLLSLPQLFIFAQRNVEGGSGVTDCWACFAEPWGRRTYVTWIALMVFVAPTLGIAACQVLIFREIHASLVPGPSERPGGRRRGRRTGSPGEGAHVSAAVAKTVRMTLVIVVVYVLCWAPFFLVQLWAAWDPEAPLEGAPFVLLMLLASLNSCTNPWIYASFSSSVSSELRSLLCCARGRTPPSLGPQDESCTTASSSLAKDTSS

[2] = molecular target: T2, Muscarinic acetylcholine receptor M1 (Homo sapiens, UniProt P11229); type: functional
T2 sequence (P11229 whole entry): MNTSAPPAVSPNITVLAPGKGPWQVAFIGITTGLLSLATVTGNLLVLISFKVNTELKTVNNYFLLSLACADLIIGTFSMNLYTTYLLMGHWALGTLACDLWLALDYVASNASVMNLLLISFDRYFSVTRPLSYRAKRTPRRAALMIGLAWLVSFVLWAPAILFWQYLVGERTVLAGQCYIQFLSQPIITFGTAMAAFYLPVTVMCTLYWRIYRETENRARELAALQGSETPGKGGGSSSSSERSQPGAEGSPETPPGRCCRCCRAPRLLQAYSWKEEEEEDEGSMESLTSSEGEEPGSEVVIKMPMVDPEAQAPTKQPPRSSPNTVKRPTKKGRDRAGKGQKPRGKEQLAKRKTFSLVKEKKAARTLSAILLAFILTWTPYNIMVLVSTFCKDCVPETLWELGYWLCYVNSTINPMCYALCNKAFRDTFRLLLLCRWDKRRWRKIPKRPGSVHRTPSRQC

Estrogen receptor = molecular target: T3, Estrogen receptor (Homo sapiens, UniProt P03372)
T3 sequence (P03372 whole entry): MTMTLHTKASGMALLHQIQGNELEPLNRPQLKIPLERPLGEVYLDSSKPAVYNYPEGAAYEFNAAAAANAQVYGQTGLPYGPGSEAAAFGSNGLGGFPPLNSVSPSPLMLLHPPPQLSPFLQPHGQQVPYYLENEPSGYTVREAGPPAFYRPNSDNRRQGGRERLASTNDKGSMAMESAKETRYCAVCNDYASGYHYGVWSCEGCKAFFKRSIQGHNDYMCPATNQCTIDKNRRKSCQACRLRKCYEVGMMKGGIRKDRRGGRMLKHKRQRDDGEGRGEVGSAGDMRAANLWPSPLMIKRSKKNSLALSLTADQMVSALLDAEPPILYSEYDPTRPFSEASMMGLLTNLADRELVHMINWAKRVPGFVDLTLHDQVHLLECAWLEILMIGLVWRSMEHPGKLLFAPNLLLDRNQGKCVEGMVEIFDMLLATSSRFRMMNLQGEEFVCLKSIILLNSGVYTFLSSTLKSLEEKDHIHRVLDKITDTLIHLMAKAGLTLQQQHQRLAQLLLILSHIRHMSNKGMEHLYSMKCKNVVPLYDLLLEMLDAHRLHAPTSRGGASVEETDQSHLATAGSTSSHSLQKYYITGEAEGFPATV

[3] = molecular target: Growth hormone secretagogue receptor type 1 (Homo sapiens, UniProt Q92847)
Growth hormone secretagogue receptor type 1, sequence (Q92847 whole entry): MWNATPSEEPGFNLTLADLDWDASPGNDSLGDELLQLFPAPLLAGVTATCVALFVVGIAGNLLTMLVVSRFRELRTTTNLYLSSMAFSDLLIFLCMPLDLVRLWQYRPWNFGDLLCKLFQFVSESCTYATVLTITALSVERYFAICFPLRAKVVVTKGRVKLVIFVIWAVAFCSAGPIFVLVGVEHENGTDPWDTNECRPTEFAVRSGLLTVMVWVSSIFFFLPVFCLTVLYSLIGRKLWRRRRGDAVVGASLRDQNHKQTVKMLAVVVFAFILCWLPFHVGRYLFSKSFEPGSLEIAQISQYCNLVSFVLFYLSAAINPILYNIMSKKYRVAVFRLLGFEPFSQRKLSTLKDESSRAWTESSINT

[4] = molecular target: T4, 5-hydroxytryptamine receptor 1A (Homo sapiens, UniProt P08908); type: functional, cell-based
T4 sequence (P08908 whole entry): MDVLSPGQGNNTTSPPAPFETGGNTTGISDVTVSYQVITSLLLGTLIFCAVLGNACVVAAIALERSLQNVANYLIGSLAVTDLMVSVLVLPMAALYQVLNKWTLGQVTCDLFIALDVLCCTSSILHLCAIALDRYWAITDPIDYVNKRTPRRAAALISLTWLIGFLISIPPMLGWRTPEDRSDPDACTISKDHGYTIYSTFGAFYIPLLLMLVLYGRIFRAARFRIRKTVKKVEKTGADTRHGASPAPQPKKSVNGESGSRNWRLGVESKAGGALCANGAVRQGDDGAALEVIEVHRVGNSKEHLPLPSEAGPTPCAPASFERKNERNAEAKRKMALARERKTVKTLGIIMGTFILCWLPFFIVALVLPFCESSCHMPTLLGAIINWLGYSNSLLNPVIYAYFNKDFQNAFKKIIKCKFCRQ

[5] = molecular target: 5-hydroxytryptamine receptor 2B (Homo sapiens, UniProt P41595); type: functional, cell-based
5-hydroxytryptamine receptor 2B, sequence (P41595 whole entry): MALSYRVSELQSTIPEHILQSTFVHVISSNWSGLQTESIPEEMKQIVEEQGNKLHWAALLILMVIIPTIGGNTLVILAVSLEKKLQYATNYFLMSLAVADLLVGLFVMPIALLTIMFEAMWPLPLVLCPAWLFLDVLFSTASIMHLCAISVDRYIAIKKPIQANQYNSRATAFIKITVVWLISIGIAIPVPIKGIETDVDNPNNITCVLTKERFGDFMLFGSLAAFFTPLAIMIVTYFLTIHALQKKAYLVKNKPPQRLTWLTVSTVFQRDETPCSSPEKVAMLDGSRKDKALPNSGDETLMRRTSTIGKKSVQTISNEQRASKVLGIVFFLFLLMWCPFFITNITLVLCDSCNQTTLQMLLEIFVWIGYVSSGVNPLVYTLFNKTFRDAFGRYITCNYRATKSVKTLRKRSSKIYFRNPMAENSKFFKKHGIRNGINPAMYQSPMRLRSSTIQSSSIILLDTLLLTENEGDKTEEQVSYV

[6] = molecular target: T5, 5-hydroxytryptamine receptor 3A (Homo sapiens, UniProt P46098); type: functional
T5 sequence (P46098 whole entry): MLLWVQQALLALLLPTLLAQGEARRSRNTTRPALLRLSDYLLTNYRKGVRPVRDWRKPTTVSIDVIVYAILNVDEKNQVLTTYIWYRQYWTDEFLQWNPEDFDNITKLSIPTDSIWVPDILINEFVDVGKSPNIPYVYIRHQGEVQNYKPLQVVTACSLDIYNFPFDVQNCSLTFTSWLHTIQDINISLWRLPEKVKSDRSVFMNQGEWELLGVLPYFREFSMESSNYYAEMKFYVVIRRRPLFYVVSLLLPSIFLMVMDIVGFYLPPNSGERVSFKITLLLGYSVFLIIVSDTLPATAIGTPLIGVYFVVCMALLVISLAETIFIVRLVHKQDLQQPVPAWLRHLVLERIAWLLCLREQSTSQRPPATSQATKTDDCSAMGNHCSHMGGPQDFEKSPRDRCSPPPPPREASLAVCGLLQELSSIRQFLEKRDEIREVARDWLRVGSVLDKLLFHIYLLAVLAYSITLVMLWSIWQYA

[7] = molecular target: 3',5'-cyclic-AMP phosphodiesterase 4D (Homo sapiens, UniProt Q08499); type: functional
3',5'-cyclic-AMP phosphodiesterase 4D, sequence (Q08499 whole entry): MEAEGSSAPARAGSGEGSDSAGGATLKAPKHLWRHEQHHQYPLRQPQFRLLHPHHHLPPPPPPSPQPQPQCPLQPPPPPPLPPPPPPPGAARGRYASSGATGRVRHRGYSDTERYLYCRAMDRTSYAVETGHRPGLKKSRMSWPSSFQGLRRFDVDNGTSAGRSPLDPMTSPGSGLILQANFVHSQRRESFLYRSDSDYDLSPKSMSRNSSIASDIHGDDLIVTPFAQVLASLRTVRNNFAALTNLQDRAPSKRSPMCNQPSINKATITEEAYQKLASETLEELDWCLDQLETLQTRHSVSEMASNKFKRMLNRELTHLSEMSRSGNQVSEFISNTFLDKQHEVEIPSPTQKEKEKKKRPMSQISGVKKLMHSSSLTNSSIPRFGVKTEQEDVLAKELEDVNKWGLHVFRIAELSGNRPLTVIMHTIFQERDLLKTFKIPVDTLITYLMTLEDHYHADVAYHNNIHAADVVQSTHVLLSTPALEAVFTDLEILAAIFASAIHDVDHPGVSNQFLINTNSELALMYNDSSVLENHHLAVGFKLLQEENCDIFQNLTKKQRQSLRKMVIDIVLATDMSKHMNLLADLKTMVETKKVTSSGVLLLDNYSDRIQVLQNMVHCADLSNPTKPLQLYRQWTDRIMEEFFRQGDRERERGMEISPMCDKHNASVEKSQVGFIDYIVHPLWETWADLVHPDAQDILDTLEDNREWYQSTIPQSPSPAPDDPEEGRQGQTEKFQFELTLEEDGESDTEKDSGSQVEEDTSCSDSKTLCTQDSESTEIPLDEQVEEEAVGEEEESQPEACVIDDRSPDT
Also: assay procedure not described here.

SMILES	AC50 [1] [µM]	AC50 (Vasopressin V2 receptor) [µM]	AC50 [2] [µM]	AC50 (Estrogen receptor) [µM]	AC50 [3] [µM]	AC50 [4] [µM]	AC50 [5] [µM]	AC50 [6] [µM]	AC50 [7] [µM]
C=C[C@@]1(C)CC(=O)[C@]2(O)[C@@]3(C)[C@@H](O)CCC(C)(C)[C@@H]3[C@H](O)[C@H](OC(C)=O)[C@@]2(C)O1 [COLFORSIN]	> 30	> 30	> 30	> 30	> 30	> 30	> 30	> 30	> 30
CCN(CC)CCN1C(=O)CN=C(c2ccccc2F)c2cc(Cl)ccc21 [FLURAZEPAM]	> 30	> 30	> 10	> 30	22.9	> 30	> 10	20	> 30
COc1cc2c(cc1OC)C(CCc1ccc(Cl)cc1)N(C)CC2 (stereo unspecified) [METHOPHOLINE]	> 30	> 30	> 10	> 30	> 30	> 10	> 10	> 30	> 30
C[N@+]1(CCF)[C@@H]2CC[C@H]1C[C@@H](OC(=O)C(O)(c1ccccc1)c1ccccc1)C2	> 30	> 30	0.0066	> 30	> 30	> 30	> 30	> 30	> 30
Oc1ccc2c(c1)[C@@]13CCCC[C@@]1(O)[C@@H](C2)N(CC1CCC1)CC3 [BUTORPHANOL]	> 30	> 30	> 30	> 30	> 30	> 30	> 30	> 30	> 30
OCc1cc(C(O)CNCCCCCCOCCCCc2ccccc2)ccc1O (stereo unspecified) [SALMETEROL]	> 30	> 30	> 10	> 30	> 30	5.4	12	> 30	> 30
COc1ccc2nc3cc(Cl)ccc3c(Nc3cc(CN4CCCC4)c(O)c(CN4CCCC4)c3)c2n1 [PYRONARIDINE]	> 30	18	> 30	> 30	26	> 30	> 30	> 30	24
O=C1CN=C(c2ccccn2)c2cc(Br)ccc2N1 [BROMAZEPAM]	> 10	> 10	> 10	> 10	> 10	> 10	> 10	> 30	> 30
CCCCCC(=O)O[C@]1(C(C)=O)CC[C@H]2[C@@H]3CCC4=CC(=O)CC[C@]4(C)[C@H]3CC[C@@]21C [HYDROXYPROGESTERONE CAPROATE]	> 30	> 30	> 30	> 30	> 30	> 30	> 30	> 30	25
CC(=O)O[C@H](CC(=O)[O-])C[N+](C)(C)C [ACETYLCARNITINE]	> 30	> 30	> 30	> 30	> 30	> 30	> 30	> 30	> 30
C=C1/C(=C\C=C2/CCC[C@]3(C)[C@@H]([C@H](C)/C=C/[C@@H](O)C4CC4)CC[C@@H]23)C[C@@H](O)C[C@@H]1O [CALCIPOTRIENE]	> 30	> 30	> 30	> 10	> 30	27	> 30	> 30	> 30
CC1=C(C)C(=O)C(C(CCCCCC(=O)O)c2ccccc2)=C(C)C1=O (stereo unspecified) [SERATRODAST]	> 30	> 30	> 30	> 30	> 30	> 30	> 30	> 30	22
CCN(CC)C(=O)Nc1ccc(OCC(O)CNC(C)(C)C)c(C(C)=O)c1 (stereo unspecified) [CELIPROLOL]	> 30	> 30	> 30	> 30	> 30	> 30	> 30	> 30	> 30
CC(=O)SC[C@@H](C)C(=O)N1CCC[C@H]1C(=O)N[C@@H](Cc1ccccc1)C(=O)O	> 30	> 30	> 30	> 30	> 30	> 30	> 30	> 30	> 30
